Measured values: US20250325562A1, “Intravenous Ganaxolone Formulations and Methods of Use in Treating Status Epilepticus and Other Seizure Disorders” (MARINUS PHARMACEUTICALS, INC., priority 2015, published 2025)

Tested on: pilocarpine induced status epilepticus (SE)
Test: Pilocarpine-induced status epilepticus in rats, cortical EEG power
Format: in vivo, Male Sprague-Dawley rats
Parameters: key to Treatment effect on EEG power vs vehicle, significance: * P < 0.05; ** P < 0.01; *** P < 0.001; **** P < 0.0001; ns = not significant
Details: 12 mg/kg IV
Experimental: This study was designed to determine the ability of a CAPTISOL-ganaxolone (GNX) formulation administered intravenously (IV) at 12 and 15 mg/kg to inhibit pilocarpine induced status epilepticus (SE). Allopregnanolone (Allo) (15 mg/kg; IV) was also evaluated for comparison. In this study, test drugs were administered either 15 or 60 minutes after onset of SE and compared to vehicle (30% Captisol).
Cortical EEG activity was recorded in rats before and after administration of pilocarpine to induce SE. Animals were pre-treated with LiCl to enhance and improve reliability of seizure induction and scopolamine to reduce peripheral cholinergic side effects of pilocarpine. EEG activity was recorded for 5 h after SE onset, and anticonvulsant activity was assessed by determining changes in EEG power over frequency ranges from 0.3 to 96 Hz.
Male Sprague-Dawley rats were used for the studies. Rats were surgically implanted with EEG electrodes and jugular vein catheters. The mean weight at the time of recording was 321+3 g (269-351 g).
EEG electrodes were surgically implanted in anesthetized rats. Animals were also treated with an anti-inflammatory anaelgesic (RIMADYL, (carprofen)) prior to surgery and a subcutaneous local anesthetic. Stainless steel screw electrodes chronically were implanted in the skull (0-80×¼″, Plastics-One, Roanoke, VA) such that the ends of the screws were flush with the inner skull surface. One electrode was located 3.0 mm anterior to bregma and 2 mm to the left of midline, and the second 4.0 mm posterior to bregma and 2.5 mm to the right of midline. The skull surface around the electrodes was sealed with super glue and dental acrylic, and the EEG electrode lead wires were inserted into a plastic pedestal mounted on the skull using dental acrylic. Wound edges were treated with triple antibiotic cream (bacitracin zinc, neomycin sulfate, polymyxin B sulfate; Walgreens). Following surgery, animals were administered antibiotic (ampicillin, 50 mg/kg IP at 0.4 mL/kg) and also received a chewable dose (˜10 mg) of Rimadyl following surgery. The animals were allowed to recover from EEG surgery for 1 week.
Rats were implanted with jugular-vein catheters (JVC) one week following EEG surgery. Rats were administered an anti-inflammatory/analgesic and then anesthetized and placed in a supine position. An incision was made in the skin on the right ventrolateral aspect of the neck to expose the external jugular vein which was then dissected free of surrounding fascia. A ligature was tied around the vein anteriorly to occlude blood flow returning to the heart. A second ligature was loosely tied around the vein posteriorly to create tension on the vessel during venotomy and catheter insertion. After incising the vein, a PE catheter (3Fr) was inserted into the vein and advanced approximately 30 mm towards the heart, positioning the tip at the junction of the precava and right atrium. After confirming patency of the catheter by blood withdrawal, the posterior ligature was tied off, and the catheter flushed with a “heparin-lock” solution (5 units heparin/ml saline) and plugged with a sterilized stainless steel pin. The catheter was then exteriorized by tunneling through the subcutaneous tissue to exit posterior to the head between the shoulder blades. Lastly, after suturing the catheter to the skin, all wounds were closed using sutures or wound clips. Immediately following surgery, the animals were awakened to assess catheter patency. Animals also received a chewable dose (˜10 mg) of Rimadyl following surgery to minimize pain and inflammation.
Animals were allowed a 1-week recovery time following JVC surgery. Jugular vein catheters were flushed daily with a 0.1 mL of heparin solution (5 units/mL) to maintain patency. On the day of surgery, the flushing solution contained ampicillin sulbactam (50 mg/kg). […]

CC(=O)[C@H]1CC[C@H]2[C@@H]3CC[C@H]4C[C@](C)(O)CC[C@]4(C)[C@H]3CC[C@]12C [Ganaxolone, 3α-hydroxy, 3β-methyl-5α-pregnan-20-one]
Treatment effect on EEG power vs vehicle, significance (15 min post SE onset, 0-5 Hz, 0-15 min. post drug): **** (**** P < 0.0001)
Treatment effect on EEG power vs vehicle, significance (15 min post SE onset, 0-5 Hz, 1-2 hrs post drug): **** (**** P < 0.0001)
Treatment effect on EEG power vs vehicle, significance (15 min post SE onset, 0-5 Hz, 2-3 hrs post drug): *** (*** P < 0.001)
Treatment effect on EEG power vs vehicle, significance (15 min post SE onset, 0-5 Hz, 3-5 hrs post drug): ** (** P < 0.01)
Treatment effect on EEG power vs vehicle, significance (15 min post SE onset, 0-5 Hz, 15-30 min post drug): **** (**** P < 0.0001)
Treatment effect on EEG power vs vehicle, significance (15 min post SE onset, 0-5 Hz, 30-60 min post drug): **** (**** P < 0.0001)
Treatment effect on EEG power vs vehicle, significance (15 min post SE onset, 5-10 Hz, 0-15 min. post drug): **** (**** P < 0.0001)
Treatment effect on EEG power vs vehicle, significance (15 min post SE onset, 5-10 Hz, 1-2 hrs post drug): ** (** P < 0.01)
Treatment effect on EEG power vs vehicle, significance (15 min post SE onset, 5-10 Hz, 2-3 hrs post drug): * (* P < 0.05)
Treatment effect on EEG power vs vehicle, significance (15 min post SE onset, 5-10 Hz, 3-5 hrs post drug): ns
Treatment effect on EEG power vs vehicle, significance (15 min post SE onset, 5-10 Hz, 15-30 min post drug): **** (**** P < 0.0001)
Treatment effect on EEG power vs vehicle, significance (15 min post SE onset, 5-10 Hz, 30-60 min post drug): *** (*** P < 0.001)
Treatment effect on EEG power vs vehicle, significance (15 min post SE onset, 10-30 Hz, 0-15 min. post drug): *** (*** P < 0.001)
Treatment effect on EEG power vs vehicle, significance (15 min post SE onset, 10-30 Hz, 1-2 hrs post drug): * (* P < 0.05)
Treatment effect on EEG power vs vehicle, significance (15 min post SE onset, 10-30 Hz, 2-3 hrs post drug): ns
Treatment effect on EEG power vs vehicle, significance (15 min post SE onset, 10-30 Hz, 3-5 hrs post drug): ns
Treatment effect on EEG power vs vehicle, significance (15 min post SE onset, 10-30 Hz, 15-30 min post drug): **** (**** P < 0.0001)
Treatment effect on EEG power vs vehicle, significance (15 min post SE onset, 10-30 Hz, 30-60 min post drug): ** (** P < 0.01)
Treatment effect on EEG power vs vehicle, significance (15 min post SE onset, 30-50 Hz, 0-15 min. post drug): *** (*** P < 0.001)
Treatment effect on EEG power vs vehicle, significance (15 min post SE onset, 30-50 Hz, 1-2 hrs post drug): * (* P < 0.05)
Treatment effect on EEG power vs vehicle, significance (15 min post SE onset, 30-50 Hz, 2-3 hrs post drug): ns
Treatment effect on EEG power vs vehicle, significance (15 min post SE onset, 30-50 Hz, 3-5 hrs post drug): ns
Treatment effect on EEG power vs vehicle, significance (15 min post SE onset, 30-50 Hz, 15-30 min post drug): *** (*** P < 0.001)
Treatment effect on EEG power vs vehicle, significance (15 min post SE onset, 30-50 Hz, 30-60 min post drug): ** (** P < 0.01)
Treatment effect on EEG power vs vehicle, significance (15 min post SE onset, 50-70 Hz, 0-15 min. post drug): ** (** P < 0.01)
Treatment effect on EEG power vs vehicle, significance (15 min post SE onset, 50-70 Hz, 1-2 hrs post drug): ** (** P < 0.01)
Treatment effect on EEG power vs vehicle, significance (15 min post SE onset, 50-70 Hz, 2-3 hrs post drug): ns
Treatment effect on EEG power vs vehicle, significance (15 min post SE onset, 50-70 Hz, 3-5 hrs post drug): ns
Treatment effect on EEG power vs vehicle, significance (15 min post SE onset, 50-70 Hz, 15-30 min post drug): ** (** P < 0.01)
Treatment effect on EEG power vs vehicle, significance (15 min post SE onset, 50-70 Hz, 30-60 min post drug): * (* P < 0.05)
Treatment effect on EEG power vs vehicle, significance (15 min post SE onset, 70-96 Hz, 0-15 min. post drug): ** (** P < 0.01)
Treatment effect on EEG power vs vehicle, significance (15 min post SE onset, 70-96 Hz, 1-2 hrs post drug): ** (** P < 0.01)
Treatment effect on EEG power vs vehicle, significance (15 min post SE onset, 70-96 Hz, 2-3 hrs post drug): ns
Treatment effect on EEG power vs vehicle, significance (15 min post SE onset, 70-96 Hz, 3-5 hrs post drug): ns
Treatment effect on EEG power vs vehicle, significance (15 min post SE onset, 70-96 Hz, 15-30 min post drug): ** (** P < 0.01)
Treatment effect on EEG power vs vehicle, significance (15 min post SE onset, 70-96 Hz, 30-60 min post drug): * (* P < 0.05)
Treatment effect on EEG power vs vehicle, significance (60 min post SE onset, 0-5 Hz, 0-15 min. post drug): *** (*** P < 0.001)
Treatment effect on EEG power vs vehicle, significance (60 min post SE onset, 0-5 Hz, 1-2 hrs post drug): **** (**** P < 0.0001)
Treatment effect on EEG power vs vehicle, significance (60 min post SE onset, 0-5 Hz, 2-3 hrs post drug): *** (*** P < 0.001)
Treatment effect on EEG power vs vehicle, significance (60 min post SE onset, 0-5 Hz, 3-5 hrs post drug): ** (** P < 0.01)
Treatment effect on EEG power vs vehicle, significance (60 min post SE onset, 0-5 Hz, 15-30 min post drug): **** (**** P < 0.0001)
Treatment effect on EEG power vs vehicle, significance (60 min post SE onset, 0-5 Hz, 30-60 min post drug): **** (**** P < 0.0001)
Treatment effect on EEG power vs vehicle, significance (60 min post SE onset, 5-10 Hz, 0-15 min. post drug): **** (**** P < 0.0001)
Treatment effect on EEG power vs vehicle, significance (60 min post SE onset, 5-10 Hz, 1-2 hrs post drug): *** (*** P < 0.001)
Treatment effect on EEG power vs vehicle, significance (60 min post SE onset, 5-10 Hz, 2-3 hrs post drug): ** (** P < 0.01)
Treatment effect on EEG power vs vehicle, significance (60 min post SE onset, 5-10 Hz, 3-5 hrs post drug): ns
Treatment effect on EEG power vs vehicle, significance (60 min post SE onset, 5-10 Hz, 15-30 min post drug): **** (**** P < 0.0001)
Treatment effect on EEG power vs vehicle, significance (60 min post SE onset, 5-10 Hz, 30-60 min post drug): **** (**** P < 0.0001)
Treatment effect on EEG power vs vehicle, significance (60 min post SE onset, 10-30 Hz, 0-15 min. post drug): * (* P < 0.05)
Treatment effect on EEG power vs vehicle, significance (60 min post SE onset, 10-30 Hz, 1-2 hrs post drug): ** (** P < 0.01)
Treatment effect on EEG power vs vehicle, significance (60 min post SE onset, 10-30 Hz, 2-3 hrs post drug): * (* P < 0.05)
Treatment effect on EEG power vs vehicle, significance (60 min post SE onset, 10-30 Hz, 3-5 hrs post drug): ns
